“And” between values parts separate entries of the source, which are not always exact repeats. Equal entries are not always repeated.
What was measured:
Format in all cases: cell-based
Maxi-K α1/β4 = molecular target: T1, Maxi-K α1/β4 (Homo sapiens, UniProt Q12791); experiment: Tl+-flux assay in HEK-293 cells, Maxi-K α1/β4; details: HEK293; 10 µM test compound; relative to control paxilline; read-out: Percent Inhibition ± SEM, Maxi-K α1/β4
T1 construct: expressed in transfected cells; host or cells: HEK293
Text: (§1) Having executed our plan to prepare analogs across the identified regions of the chemotype (Figure 2), we identified two analogs for further profiling and evaluation. […] Desiring to add a second compound with some measure of structural differences, we also chose another submicromolar SLACK inhibitor 66 (VU0936154). Whereas 40 contains an ether linker and a halogenated phenyl group in the eastern region, […] contains an N-methyl linker and a phenyl group with a more polar cyano substituent. We first screened these analogs at 10 µM versus our in-house panel of ion channel targets using Tl^+-flux assays in HEK-293 cells expressing the human target of interest. […] Included in this set are Slo family members SLICK and two isoforms of Maxi-K, as well as several different K^+, Na^+, and Ca^2+ channels (Table 6). […] Of note was the excellent selectivity versus the broader panel of targets for both compounds, including versus the hERG channel.
(§2) Stably transfected monoclonal HEK293 cell lines expressing SLICK, Maxi-K α1/β3, Maxi-K α1/β4, CaV3.2, GIRK 1/2, KV2.1, KV7.2, NaV1.7, and TASK-1 were generated as previously described. […]
(§3) The Tl^+ flux assays were conducted as previously described, with modifications optimized for individual cell lines as described below. […] Cell plates were then loaded onto a Panoptic kinetic imaging plate reader (WaveFront Biosciences, Franklin, TN, USA). […]

TASK-1 = molecular target: T2, TASK-1 (Homo sapiens, UniProt O14649); experiment: Tl+-flux assay in HEK-293 cells, TASK-1; details: HEK293; 10 µM test compound; relative to control bepridil; read-out: Percent Inhibition ± SEM, TASK-1
T2 construct: expressed in transfected cells; host or cells: HEK293
Text: as §1, §2, §3

NaV1.7 = molecular target: T3, NaV1.7 (Homo sapiens, UniProt Q15858); experiment: Tl+-flux assay in HEK-293 cells, NaV1.7; details: HEK293; 10 µM test compound; relative to control TC-N 1752; read-out: Percent Inhibition ± SEM, NaV1.7
T3 construct: expressed in transfected cells; host or cells: HEK293
Text: as §1, §2, §3

KV2.1 = molecular target: T4, KV2.1 (Homo sapiens, UniProt Q14721); experiment: Tl+-flux assay in HEK-293 cells, KV2.1; details: HEK293; 10 µM test compound; relative to control guangxitoxin 1E; read-out: Percent Inhibition ± SEM, KV2.1
T4 construct: expressed in transfected cells; host or cells: HEK293
Text: as §1, §2, §3

KV7.2 = molecular target: T5, KV7.2 (Homo sapiens, UniProt O43526); experiment: Tl+-flux assay in HEK-293 cells, KV7.2; details: HEK293; 10 µM test compound; relative to control XE991; read-out: Percent Inhibition ± SEM, KV7.2
T5 construct: expressed in transfected cells; host or cells: HEK293
Text: as §1, §2, §3

SLICK = molecular target: T6, SLICK (Homo sapiens, UniProt Q6UVM3); experiment: Tl+-flux assay in HEK-293 cells, SLICK; details: 10 µM test compound
T6 construct: expressed in transfected cells; host or cells: HEK293
Text: as §1, §2, §3

GIRK 1/2 = molecular target: T7, GIRK 1/2 (Homo sapiens, UniProt P48051+P48549); experiment: Tl+-flux assay in HEK-293 cells, GIRK 1/2; details: HEK293; 10 µM test compound; relative to control SCH23390; read-out: Percent Inhibition ± SEM, GIRK 1/2
T7 construct: expressed in transfected cells; host or cells: HEK293
Text: as §1, §2, §3

T6 sequence (Q6UVM3 whole entry): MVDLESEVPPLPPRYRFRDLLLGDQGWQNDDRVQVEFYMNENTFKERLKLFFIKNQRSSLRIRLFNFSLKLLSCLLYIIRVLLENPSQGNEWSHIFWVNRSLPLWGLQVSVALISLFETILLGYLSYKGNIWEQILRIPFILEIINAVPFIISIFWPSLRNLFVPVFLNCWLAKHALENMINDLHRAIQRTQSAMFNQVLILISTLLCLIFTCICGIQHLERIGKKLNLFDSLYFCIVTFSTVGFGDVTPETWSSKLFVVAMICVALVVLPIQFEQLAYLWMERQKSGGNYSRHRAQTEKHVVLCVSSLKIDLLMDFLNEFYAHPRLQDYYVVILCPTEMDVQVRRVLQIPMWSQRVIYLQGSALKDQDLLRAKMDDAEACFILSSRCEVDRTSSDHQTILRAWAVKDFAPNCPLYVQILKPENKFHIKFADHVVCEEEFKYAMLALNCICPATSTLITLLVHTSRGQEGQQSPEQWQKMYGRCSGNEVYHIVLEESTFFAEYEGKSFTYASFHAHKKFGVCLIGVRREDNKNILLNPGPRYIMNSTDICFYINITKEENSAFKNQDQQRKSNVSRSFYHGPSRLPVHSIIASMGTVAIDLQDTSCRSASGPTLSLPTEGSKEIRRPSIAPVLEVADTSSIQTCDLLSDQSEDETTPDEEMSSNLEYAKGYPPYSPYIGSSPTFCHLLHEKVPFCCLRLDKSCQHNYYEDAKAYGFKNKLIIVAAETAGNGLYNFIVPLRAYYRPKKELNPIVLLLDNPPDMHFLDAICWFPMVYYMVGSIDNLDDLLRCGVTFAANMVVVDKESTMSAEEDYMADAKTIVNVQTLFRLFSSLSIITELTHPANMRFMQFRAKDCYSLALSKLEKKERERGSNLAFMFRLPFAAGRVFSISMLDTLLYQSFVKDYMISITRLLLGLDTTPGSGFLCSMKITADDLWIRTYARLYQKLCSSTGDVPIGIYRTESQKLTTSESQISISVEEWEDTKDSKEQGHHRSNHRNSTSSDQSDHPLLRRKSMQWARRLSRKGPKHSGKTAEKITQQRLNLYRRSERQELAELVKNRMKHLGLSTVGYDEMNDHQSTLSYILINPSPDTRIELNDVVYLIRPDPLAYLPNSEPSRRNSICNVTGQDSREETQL
T7 sequence (P48549 whole entry): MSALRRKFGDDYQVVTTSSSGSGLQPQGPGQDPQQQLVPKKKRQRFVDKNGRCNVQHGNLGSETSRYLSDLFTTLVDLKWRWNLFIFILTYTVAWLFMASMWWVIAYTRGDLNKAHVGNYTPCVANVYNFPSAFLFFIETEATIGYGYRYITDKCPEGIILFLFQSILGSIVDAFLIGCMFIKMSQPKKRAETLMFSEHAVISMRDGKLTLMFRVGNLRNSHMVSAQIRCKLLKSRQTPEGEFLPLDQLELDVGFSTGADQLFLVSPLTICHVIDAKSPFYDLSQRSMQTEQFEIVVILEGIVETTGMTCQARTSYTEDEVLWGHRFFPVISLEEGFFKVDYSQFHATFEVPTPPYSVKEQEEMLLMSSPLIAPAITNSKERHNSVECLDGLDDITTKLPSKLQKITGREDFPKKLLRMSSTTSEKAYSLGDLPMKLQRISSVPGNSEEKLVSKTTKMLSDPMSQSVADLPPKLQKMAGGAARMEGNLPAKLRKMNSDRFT
T7 sequence (P48051 whole entry): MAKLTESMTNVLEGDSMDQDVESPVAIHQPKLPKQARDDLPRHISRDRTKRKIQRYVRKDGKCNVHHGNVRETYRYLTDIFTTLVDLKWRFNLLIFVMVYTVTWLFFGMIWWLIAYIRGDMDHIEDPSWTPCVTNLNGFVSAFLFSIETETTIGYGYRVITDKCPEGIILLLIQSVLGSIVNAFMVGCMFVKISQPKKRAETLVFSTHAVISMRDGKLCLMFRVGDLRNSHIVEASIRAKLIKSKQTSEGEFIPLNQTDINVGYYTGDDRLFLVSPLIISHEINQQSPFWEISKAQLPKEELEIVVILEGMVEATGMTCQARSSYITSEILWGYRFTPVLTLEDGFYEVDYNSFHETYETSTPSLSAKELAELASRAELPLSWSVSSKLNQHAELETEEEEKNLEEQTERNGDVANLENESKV
T3 sequence (Q15858 whole entry): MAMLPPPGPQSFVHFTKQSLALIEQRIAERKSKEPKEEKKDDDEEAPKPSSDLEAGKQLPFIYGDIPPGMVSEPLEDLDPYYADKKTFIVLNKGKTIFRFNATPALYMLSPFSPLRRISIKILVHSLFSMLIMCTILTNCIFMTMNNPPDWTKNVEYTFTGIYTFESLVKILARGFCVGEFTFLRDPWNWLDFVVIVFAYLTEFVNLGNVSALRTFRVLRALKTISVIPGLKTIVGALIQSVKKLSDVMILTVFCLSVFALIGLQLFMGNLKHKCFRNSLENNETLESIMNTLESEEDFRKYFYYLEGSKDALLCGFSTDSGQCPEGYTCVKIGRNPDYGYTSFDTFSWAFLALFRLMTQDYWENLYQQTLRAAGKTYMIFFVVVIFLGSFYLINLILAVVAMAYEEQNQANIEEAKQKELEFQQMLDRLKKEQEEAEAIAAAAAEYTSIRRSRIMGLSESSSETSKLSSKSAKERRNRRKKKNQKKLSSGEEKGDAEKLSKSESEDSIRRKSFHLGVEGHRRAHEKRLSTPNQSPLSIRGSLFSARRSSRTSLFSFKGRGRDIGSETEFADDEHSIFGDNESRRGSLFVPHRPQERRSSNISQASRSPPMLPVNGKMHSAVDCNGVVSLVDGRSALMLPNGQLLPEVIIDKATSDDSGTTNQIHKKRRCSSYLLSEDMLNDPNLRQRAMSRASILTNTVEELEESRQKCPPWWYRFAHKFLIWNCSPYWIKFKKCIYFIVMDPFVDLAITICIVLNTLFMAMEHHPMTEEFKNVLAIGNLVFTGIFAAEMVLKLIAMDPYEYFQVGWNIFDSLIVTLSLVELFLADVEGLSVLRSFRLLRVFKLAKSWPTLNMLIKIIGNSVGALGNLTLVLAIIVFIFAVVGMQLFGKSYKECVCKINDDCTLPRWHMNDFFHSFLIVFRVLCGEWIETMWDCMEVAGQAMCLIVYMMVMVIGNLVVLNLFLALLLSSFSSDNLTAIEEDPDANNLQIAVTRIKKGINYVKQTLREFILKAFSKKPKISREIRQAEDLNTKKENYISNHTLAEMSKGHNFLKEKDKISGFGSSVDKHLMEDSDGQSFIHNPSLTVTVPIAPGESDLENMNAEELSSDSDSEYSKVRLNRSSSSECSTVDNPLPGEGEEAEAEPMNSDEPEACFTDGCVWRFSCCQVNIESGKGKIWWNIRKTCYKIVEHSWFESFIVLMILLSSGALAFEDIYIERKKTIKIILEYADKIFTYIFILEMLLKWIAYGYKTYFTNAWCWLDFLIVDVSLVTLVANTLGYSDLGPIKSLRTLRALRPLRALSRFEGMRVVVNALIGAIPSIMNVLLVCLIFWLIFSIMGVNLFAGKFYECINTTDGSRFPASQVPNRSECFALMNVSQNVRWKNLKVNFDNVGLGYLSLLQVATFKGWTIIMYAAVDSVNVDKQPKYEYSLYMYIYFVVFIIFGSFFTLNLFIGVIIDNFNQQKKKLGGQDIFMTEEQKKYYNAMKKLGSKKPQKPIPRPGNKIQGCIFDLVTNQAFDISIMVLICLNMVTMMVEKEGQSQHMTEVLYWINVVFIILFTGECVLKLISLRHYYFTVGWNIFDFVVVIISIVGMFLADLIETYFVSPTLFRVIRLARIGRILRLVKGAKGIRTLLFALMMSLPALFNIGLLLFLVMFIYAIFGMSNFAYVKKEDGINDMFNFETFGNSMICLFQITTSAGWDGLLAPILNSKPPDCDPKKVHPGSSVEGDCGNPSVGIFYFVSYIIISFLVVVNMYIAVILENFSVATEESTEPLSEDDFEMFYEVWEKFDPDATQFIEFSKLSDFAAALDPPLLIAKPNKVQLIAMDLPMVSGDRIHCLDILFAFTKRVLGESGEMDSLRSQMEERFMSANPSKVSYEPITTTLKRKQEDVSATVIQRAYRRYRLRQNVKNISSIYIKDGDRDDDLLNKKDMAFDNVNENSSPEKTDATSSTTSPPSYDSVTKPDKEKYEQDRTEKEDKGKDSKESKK
T2 sequence (O14649 whole entry): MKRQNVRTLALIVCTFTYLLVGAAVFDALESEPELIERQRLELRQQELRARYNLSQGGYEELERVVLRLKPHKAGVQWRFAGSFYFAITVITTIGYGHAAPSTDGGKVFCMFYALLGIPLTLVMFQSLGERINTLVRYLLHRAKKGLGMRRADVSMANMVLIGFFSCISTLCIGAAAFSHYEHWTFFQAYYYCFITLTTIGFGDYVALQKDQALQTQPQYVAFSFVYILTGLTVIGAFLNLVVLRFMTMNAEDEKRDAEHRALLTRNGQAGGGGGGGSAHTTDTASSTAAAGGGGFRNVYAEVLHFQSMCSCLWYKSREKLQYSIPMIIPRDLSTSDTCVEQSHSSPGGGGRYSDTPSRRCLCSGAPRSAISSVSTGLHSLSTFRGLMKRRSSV

| Compound | inhibition at 10 µM (Maxi-K α1/β4) [%] | inhibition at 10 µM (TASK-1) [%] | inhibition at 10 µM (NaV1.7) [%] | inhibition at 10 µM (KV2.1) [%] | inhibition at 10 µM (KV7.2) [%] | Percent activation ± SEM, SLICK (SLICK; activator, relative to control acetazolamide) | inhibition at 10 µM (GIRK 1/2) [%] | inhibition at 10 µM (SLICK; HEK293, relative to control SKF96365, read-out: Percent Inhibition ± SEM, SLICK) [%] |
| --- | --- | --- | --- | --- | --- | --- | --- | --- |
| CC(C)(Oc1ccc(Cl)cc1)C(=O)Nc1cnc(Oc2c(F)cccc2F)nc1 [Analog 40] | 10 ± 7.4 | 24 ± 3.7 | 7.5 ± 1.7 | 13 ± 5 | 1.3 ± 1 | 36% and 36 ± 8.8 (activator) ^3% | 6.8 ± 3.3 |  |
| CN(c1ccc(C#N)cc1)c1ncc(NC(=O)C(C)(C)Oc2ccc(Cl)cc2)cn1 [Analog 66] | 22 ± 2.5 | 18 ± 2 | 17 ± 1.8 | 10 ± 1.6 | 1.6 ± 0.94 |  | 6.4 ± 1.5 | 16 ± 1.4 |

— article PMC11643494, “Structure–Activity Relationship Studies in a Series of 2-Aryloxy-N-(pyrimidin-5-yl)acetamide Inhibitors of SLACK Potassium Channels” (Molecules, 2024)
